Reference: patent US20230329994A1, “Surfactant Containing Formulation of Pseudo-Ceramides” (Symrise AG, priority 2020, published 2023)

Tests used:
[1] = Solubility: visual appearance of shampoo formulations; format: physicochemical; details: 0.1 in shampoo, surfactant approx. 14%; after preparation, after 3 days at 5° C. and 3 days at room temperature
Experimental: The solubility of the pseudoceramide CeramideBio in shampoo is evaluated in comparison to Ceramide 2 and Ceramide 3.
Shampoo Formulations: • Surfactant content: Approx. 14% 01
The shampoo formulations were prepared as follows: Phase A components were blended by gentle stirring; the process was stopped, when foaming starts.
The ceramides/pseudoceramide were predispersed in polyglyceryl-4-caprate and heated up to 90° C. The ceramides/pseudoceramide were melted and finely dispersed. Ucare Polymer JR-400 and water were added and the mixture was heated up to 90° C. again and stirred for 10 minutes.
Phases B, C and D were added to phase A one after the other by stirring. After that, the mixture was stirred slowly with a vane stirrer until the solution was homogeneous. At last Phase E was added by stirring with a vane stirrer. The pH value was adjusted to about 5.4 to 5.8.
The visual appearance of the shampoo formulations was evaluated after preparation, after 3 days storage at 5° C. and 3 day at room temperature.
The visual appearance of the shampoo formulations is depicted in FIG. 1. From left to the right: Sample CeramideBio (01_B), Ceramide 2 (02_B), Ceramide 3 (03_B).

[2] = Hair shine/luster evaluation (SAMBA system)
Experimental: The hair luster was measured with a shampoo formulation according to the present invention containing pseudoceramide CeramideBio (shampoo, 1.0%), a shampoo formulation containing Ceramide 2 (shampoo, 1%) and a Placebo (shampoo).
Principle: Hair luster test analyzes the light reflection from the hair surface and other interactions of the incident light with the hair. The measurement is made by using SAMBA system. The results are expressed by luster: parameter calculated from values of shine, chroma and diffused light to express the observer perception of the gloss effect. The higher is the value, the best impression of the observer regarding gloss effect of the hair. […]

[3] = Swelling test / hydrophobicity of hair fibers; details: for diameter variation of the hair after 180 s: 1× bleached tresses
Experimental: The swelling of the hair was measured with a conditioning formulation according to the present invention containing pseudoceramide CeramideBio (leave-on, 0.5 and 0.05%), a conditioning formulation containing Ceramide 2 (leave-on, 0.5% and 0.05%) and a Placebo (leave-on).
Principle: Through diameter measurements it is possible to determine the level of swelling of a hair fiber over time when in contact with water. The swelling test evaluates the action of materials in forming a hydrophobic film on hair surface in order to prevent humidity from penetrating the hair, which in turn provokes the hair diameter variation. The laser measures the variation in the fiber diameter as it absorbs water over a pre-determined time. According to the fiber condition or the film covering its surface, the level of swelling may change. The more damaged the hair, the more hydrophilic it is, since most of the hair damages take the lipids, ceramides and other hydrophobic substances away from the hair, and, consequently, more swelling is noticed. Parameter measured: variation in hair diameter (%).
Swelling Test: • 3 Caucasian hair tresses (2.5 g, 25 cm, 1× bleached) were cleaned with a sodium laureth sulfate solution (SLES) (10%) for 1 minute; • Test samples (see above) were applied to each tress (0.25 ml of sample; massaging for 1 minute); • Tresses were left for drying at controlled environment (22±2° C.; 50±5% RH) overnight; • 45 fibers from each treatment were collected randomly and fixed in plastic tabs one by one; • Swelling test was performed during 180 s; • Variation on fiber's diameter was calculated; • Comparisons among treatments were performed using one-way variance analysis (ANOVA), followed by Tukey's honestly significant difference (HSD) test, at a 95% confidence interval.

recrystallization in shampoo formulation (visual appearance) [1] | Compound | effect on hair luster ([2]; shampoo formulation containing 1.0%) | luster of the hair compared to shampoo formulation with Ceramide 2 ([2]; shampoo, 1.0%, applied 5 times, 3× bleached tresses) | diameter variation of the hair after 180 s compared to conditioning formulation with Ceramide 2 ([3]; leave-on conditioning formulation) | diameter variation of the hair after 180 s ([3]; leave-on conditioning formulation, higher concentration (0.5%)) | diameter variation of the hair after 180 s ([3]; leave-on conditioning formulation, lower concentration (0.05%)) | hair fiber swelling / hydrophobicity versus non-treated hair, placebo and leave-on with 0.05% Ceramide 2 ([3]; leave-on formulation containing 0.05%)
showed recrystallization | CCCCCCCCCCCCCCCCCC(=O)N[C@@H](CO)[C@H](O)CCCCCCCCCCCCCCC [Ceramide 2] |  |  |  |  |  | 
showed recrystallization | CCCCCCCCCCCCCCCCCCCCCCCC(=O)N[C@@H](CO)[C@H](O)C(O)CCCCCCCCCCCCCC (stereo partly drawn) [Ceramide 3] |  |  |  |  |  | 
without recrystallization | CCCCCCCCCCCCCCCCOC(=O)[C@@H]1C[C@@H](O)CN1C(=O)CCCCCCCCCCCCCCC [CeramideBio, Cetylhydroxyproline palmitamide] | able to increase hair luster | higher | smaller | 15.90% | 14.44% | statistically decreasing its swelling
